The text below walks through data of patent US12257247B2 (Monte Rosa Therapeutics AG, priority 2023, dated 2025).

Read-outs that look alike come from different tables or passages of the source. Where only a bound is given, the exact number is not on record here.

This assay deals with T1, VAV1 (Homo sapiens, UniProt P15498+Q96SW2).
T1 construct: A heterozygous VAV1 C-terminal HiBiT knock-in pool was generated at Monte Rosa Therapeutics from a clonal Jurkat cell; endogenous in cells; host or cells: Jurkat clone stably expressing LgBiT, homozygous GSPT1-G575N; heterozygous VAV1-HiBiT knock-in pool
As to the kind of experiment: VAV1 degradation activity, VAV1-HiBiT knock-in Jurkat luminescence assay (Example A, Table 1). The following applies: VAV1-HiBiT knock-in Jurkat cells, luminescence read at 6 and 24 hours; for Dmax: Jurkat. It counts as cell-based. In short, it runs like this: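 Jurkat cells carrying VAV1-HiBiT knock-in, plated in RPMI/10% FBS with Endurazine live-cell substrate and pre-incubated ~16 h at 37° C. Compound dosed from 10 μM stock; luminescence read 6 and 24 h later. Response normalised to plate negative/positive controls, EC50 from 3-parameter logistic fit (hillslope 1).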
A general note: HiBiT is a short tag that completes a luciferase, so light tracks the accessible tagged protein.

Setting [1] is: read-out: VAV1 DC50 (nM), class.

As to `O=C1CCC(c2cccc(-c3ccc(N4CCN(CC(F)(F)F)CC4=O)cc3)c2Cl)C(=O)N1` (stereo not drawn) [Compound 445, 3-(2-chloro-4′-(2-oxo-4-(2,2,2-trifluoroethyl)piperazin-1-yl)-[1,1′-biphenyl]-3-yl)piperidine-2,6-dione], the Dmax (in general, the greatest extent of degradation seen) was 96% (read-out: VAV1 Dmax %) and more than 90% (read-out: VAV1 Dmax %, class). For the same molecule, the DC50 (commonly the concentration at which degradation of the target reaches its halfway point) (read-out: VAV1 DC50) came to 11.5 nM and the DC50 under setting [1] was not above 100 nM.

Consider `O=C1CCC(c2cccc(-c3ccc(N4CCN(CC(F)F)CC4=O)cc3)c2Cl)C(=O)N1` (stereo not drawn) [Compound 446, 3-(2-chloro-4′-(4-(2,2-difluoroethyl)-2-oxopiperazin-1-yl)-[1,1′-biphenyl]-3-yl)piperidine-2,6-dione], for which the Dmax is 95.2% (read-out: VAV1 Dmax %) and more than 90% (read-out: VAV1 Dmax %, class). Further, the DC50 is 9.83 nM (read-out: VAV1 DC50) and not above 100 nM under setting [1].

With `O=C1CCC(c2cccc(-c3ccc(Cn4ccccc4=O)nc3)c2Cl)C(=O)N1` (stereo not drawn) [Compound 447, 3-(2-chloro-3-(6-((2-oxopyridin-1(2H)-yl)methyl)pyridin-3-yl)phenyl)piperidine-2,6-dione], the maximal degradation (Dmax) is 61.9% (read-out: VAV1 Dmax %) and 60 to 90% (read-out: VAV1 Dmax %, class). The DC50 is, setting by setting: (read-out: VAV1 DC50) 741 nM; under setting [1], 100 to 1000 nM.

As to `Cc1ccn(C)c(=O)c1-c1ccc(-c2cccc(C3CCC(=O)NC3=O)c2Cl)cc1` (stereo not drawn) [Compound 448, 3-(2-chloro-4′-(1,4-dimethyl-2-oxo-1,2-dihydropyridin-3-yl)-[1,1′-biphenyl]-3-yl)piperidine-2,6-dione], the greatest degradation seen (Dmax) was 98.7% (read-out: VAV1 Dmax %) and more than 90% (read-out: VAV1 Dmax %, class). The 50% degradation concentration (DC50) by setting is: (read-out: VAV1 DC50) 1.63 nM; under setting [1], not above 100 nM.

Consider `O=C1CCC(c2cccc(-c3ccc(N4CCCN(CC(F)(F)F)C4=O)cc3)c2Cl)C(=O)N1` (stereo not drawn) [Compound 449, 3-(2-chloro-4′-(2-oxo-3-(2,2,2-trifluoroethyl)tetrahydropyrimidin-1(2H)-yl)-[1,1′-biphenyl]-3-yl)piperidine-2,6-dione], for which the Dmax is 97% (read-out: VAV1 Dmax %) and more than 90% (read-out: VAV1 Dmax %, class). The DC50 runs as follows: (read-out: VAV1 DC50) 6.45 nM; under setting [1], not above 100 nM.

For the molecule `O=C1CCC(c2cccc(-c3ccc(N4CCCCC4=O)nc3)c2Cl)C(=O)N1` (stereo not drawn) [Compound 450, 3-(2-chloro-3-(6-(2-oxopiperidin-1-yl)pyridin-3-yl)phenyl)piperidine-2,6-dione], the Dmax (read-out: VAV1 Dmax %) came to 75.9% and the Dmax (read-out: VAV1 Dmax %, class) lay in the range of 60 to 90%. For the same molecule, the DC50 was 173 nM (read-out: VAV1 DC50) and 100 to 1000 nM under setting [1].

For `O=C1CCC(c2cccc(-c3ccc(N4CCCOC4=O)nc3)c2Cl)C(=O)N1` (stereo not drawn) [Compound 451, 3-(2-chloro-3-(6-(2-oxo-1,3-oxazinan-3-yl)pyridin-3-yl)phenyl)piperidine-2,6-dione], the Dmax by setting is: (read-out: VAV1 Dmax %) 64%; (read-out: VAV1 Dmax %, class) 60 to 90%. For the same molecule, the 50% degradation concentration (DC50) (read-out: VAV1 DC50) is 542 nM and the DC50 under setting [1] is 100 to 1000 nM.

Take `O=C1CCC(c2cccc(-c3ccc(N4CCCOC4=O)c(F)c3)c2Cl)C(=O)N1` (stereo not drawn) [Compound 452, 3-(2-chloro-3′-fluoro-4′-(2-oxo-1,3-oxazinan-3-yl)-[1,1′-biphenyl]-3-yl)piperidine-2,6-dione]: the Dmax by setting is: (read-out: VAV1 Dmax %) 94%; (read-out: VAV1 Dmax %, class) more than 90%. Also, the DC50 reads like this: (read-out: VAV1 DC50) 21.5 nM; under setting [1], not above 100 nM.

Take `O=C1CCC(c2cccc(-c3ccc(Cc4cccnn4)cc3)c2Cl)C(=O)N1` (stereo not drawn) [Compound 453, 3-(2-chloro-4′-(pyridazin-3-ylmethyl)-[1,1′-biphenyl]-3-yl)piperidine-2,6-dione]: the Dmax (read-out: VAV1 Dmax %) is 97.8% and the Dmax (read-out: VAV1 Dmax %, class) was more than 90%. In addition, the DC50 (read-out: VAV1 DC50) is 13.4 nM and the DC50 under setting [1] was not above 100 nM.

On to `CN1CC(Cc2ccc(-c3cccc(C4CCC(=O)NC4=O)c3Cl)cc2)OC1=O` (stereo not drawn) [Compound 454, 3-(2-chloro-4′-((3-methyl-2-oxooxazolidin-5-yl)methyl)-[1,1′-biphenyl]-3-yl)piperidine-2,6-dione], for which the Dmax was 68.3% (read-out: VAV1 Dmax %) and 60 to 90% (read-out: VAV1 Dmax %, class). For the same molecule, the DC50 (read-out: VAV1 DC50) was 140 nM and the DC50 under setting [1] was 100 to 1000 nM.

For the molecule `O=C1CCC(c2cccc(-c3ccc(Cc4ccon4)cc3)c2Cl)C(=O)N1` (stereo not drawn) [Compound 455, 3-(2-chloro-4′-(isoxazol-3-ylmethyl)-[1,1′-biphenyl]-3-yl)piperidine-2,6-dione], the Dmax is 95.5% (read-out: VAV1 Dmax %) and more than 90% (read-out: VAV1 Dmax %, class). For the same molecule, the DC50 by setting is: (read-out: VAV1 DC50) 15.2 nM; under setting [1], not above 100 nM.

Take `O=C1CCC(c2cccc(-c3ccc(N4Cc5ccccc5C4=O)cc3)c2Cl)C(=O)N1` (stereo not drawn) [Compound 456, 3-(2-chloro-4′-(1-oxoisoindolin-2-yl)-[1,1′-biphenyl]-3-yl)piperidine-2,6-dione]: the Dmax reads like this: (read-out: VAV1 Dmax %) 61%; (read-out: VAV1 Dmax %, class) 60 to 90%. Besides, the DC50 reads like this: (read-out: VAV1 DC50) 1560 nM; under setting [1], more than 1000 nM.

As to `O=C1CCC(c2cccc(-c3ccc(N4C(=O)CCC45CCC5)cc3)c2Cl)C(=O)N1` (stereo not drawn) [Compound 457, 3-(2-chloro-4′-(6-oxo-5-azaspiro[3.4]octan-5-yl)-[1,1′-biphenyl]-3-yl)piperidine-2,6-dione], the Dmax is 98.2% (read-out: VAV1 Dmax %) and more than 90% (read-out: VAV1 Dmax %, class). The DC50 (read-out: VAV1 DC50) was found to be 2.78 nM and the DC50 under setting [1] is not above 100 nM.

Turning to `O=C1CCC(c2cccc(-c3ccc(-c4cccn(CC(F)(F)F)c4=O)cc3)c2Cl)C(=O)N1` (stereo not drawn) [Compound 458, 3-(2-chloro-4′-(2-oxo-1-(2,2,2-trifluoroethyl)-1,2-dihydropyridin-3-yl)-[1,1′-biphenyl]-3-yl)piperidine-2,6-dione], the Dmax reads like this: (read-out: VAV1 Dmax %) 98.6%; (read-out: VAV1 Dmax %, class) more than 90%. Further, the DC50 is, setting by setting: (read-out: VAV1 DC50) 4.79 nM; under setting [1], not above 100 nM.

For the molecule `O=C1CCC(c2cccc(-c3ccc(N4CCCCC4)cc3)c2Cl)C(=O)N1` (stereo not drawn) [Compound 459, 3-(2-chloro-4′-(piperidin-1-yl)-[1,1′-biphenyl]-3-yl)piperidine-2,6-dione], the Dmax is, setting by setting: (read-out: VAV1 Dmax %) 84.4%; (read-out: VAV1 Dmax %, class) 60 to 90%. Further, the DC50 (read-out: VAV1 DC50) was determined as 122 nM and the DC50 under setting [1] fell in the range of 100 to 1000 nM.

As to `O=C1CCC(c2cccc(-c3ccc(-c4cccc5ocnc45)cc3)c2Cl)C(=O)N1` (stereo not drawn) [Compound 460, 3-(4′-(benzo[d]oxazol-4-yl)-2-chloro-[1,1′-biphenyl]-3-yl)piperidine-2,6-dione], the Dmax is 89.9% (read-out: VAV1 Dmax %) and 60 to 90% (read-out: VAV1 Dmax %, class). Besides, the DC50 is 277 nM (read-out: VAV1 DC50) and 100 to 1000 nM under setting [1].

On to `O=C1CCC(c2cccc(-c3ccc(N4CCCCC4=O)c(F)c3)c2Cl)C(=O)N1` (stereo not drawn) [Compound 461, 3-(2-chloro-3′-fluoro-4′-(2-oxopiperidin-1-yl)-[1,1′-biphenyl]-3-yl)piperidine-2,6-dione], for which the Dmax (read-out: VAV1 Dmax %) amounted to 96.2% and the Dmax (read-out: VAV1 Dmax %, class) was more than 90%. The DC50 was 10.1 nM (read-out: VAV1 DC50) and not above 100 nM under setting [1].

For the molecule `[2H]c1c([2H])c(-n2ccccc2=O)c([2H])c([2H])c1-c1cccc(C2CCC(=O)NC2=O)c1Cl` (stereo not drawn) [Compound 462, 3-(2-chloro-3-(2,3,5,6-tetradeuterio-4-(2-oxo-1-pyridyl)phenyl)phenyl)piperidine-2,6-dione], the Dmax was 95.5% (read-out: VAV1 Dmax %) and more than 90% (read-out: VAV1 Dmax %, class). Moreover, the half-maximal degradation concentration (DC50) is 14.8 nM (read-out: VAV1 DC50) and not above 100 nM under setting [1].

With `O=C1CCC(c2cccc(-c3ccc(N4C(=O)CCCC4C(F)F)cc3)c2Cl)C(=O)N1` (stereo not drawn) [Compound 463, 3-(2-chloro-4′-(2-(difluoromethyl)-6-oxopiperidin-1-yl)-[1,1′-biphenyl]-3-yl)piperidine-2,6-dione], the Dmax by setting is: (read-out: VAV1 Dmax %) 95.7%; (read-out: VAV1 Dmax %, class) more than 90%. Also, the DC50 (read-out: VAV1 DC50) was 7.16 nM and the DC50 under setting [1] is not above 100 nM.

In the case of `O=C1CCC(c2cccc(-c3ccc(N4CCC(F)(F)CC4=O)cc3)c2Cl)C(=O)N1` (stereo not drawn) [Compound 464, 3-(2-chloro-4′-(4,4-difluoro-2-oxopiperidin-1-yl)-[1,1′-biphenyl]-3-yl)piperidine-2,6-dione], the Dmax (read-out: VAV1 Dmax %) was determined as 94.8% and the Dmax (read-out: VAV1 Dmax %, class) was more than 90%. Moreover, the DC50 was 9.46 nM (read-out: VAV1 DC50) and not above 100 nM under setting [1].

For the molecule `O=C1CCC(c2cccc(-c3ccc(N4Cc5cccnc5C4=O)cc3)c2Cl)C(=O)N1` (stereo not drawn) [Compound 465, 3-(2-chloro-4′-(7-oxo-5,7-dihydro-6H-pyrrolo[3,4-b]pyridin-6-yl)-[1,1′-biphenyl]-3-yl)piperidine-2,6-dione], the Dmax reads like this: (read-out: VAV1 Dmax %) 39.9%; (read-out: VAV1 Dmax %, class) less than 60%. Besides, the DC50 is, setting by setting: (read-out: VAV1 DC50) not below 10000 nM; under setting [1], more than 1000 nM.

For the molecule `O=C1CCC(c2cccc(-c3ccc(N4Cc5ncccc5C4=O)cc3)c2Cl)C(=O)N1` (stereo not drawn) [Compound 466, 3-(2-chloro-4′-(5-oxo-5,7-dihydro-6H-pyrrolo[3,4-b]pyridin-6-yl)-[1,1′-biphenyl]-3-yl)piperidine-2,6-dione], the Dmax is 35.2% (read-out: VAV1 Dmax %) and less than 60% (read-out: VAV1 Dmax %, class). In addition, the DC50 by setting is: (read-out: VAV1 DC50) not below 10000 nM; under setting [1], more than 1000 nM.

With `O=C1CCC(c2cccc(-c3ccc(N4COCCC4=O)cc3)c2Cl)C(=O)N1` (stereo not drawn) [Compound 467, 3-(2-chloro-4′-(4-oxo-1,3-oxazinan-3-yl)-[1,1′-biphenyl]-3-yl)piperidine-2,6-dione], the maximal degradation (Dmax) runs as follows: (read-out: VAV1 Dmax %) 95%; (read-out: VAV1 Dmax %, class) more than 90%. For the same molecule, the DC50 is, setting by setting: (read-out: VAV1 DC50) 11.5 nM; under setting [1], not above 100 nM.

For the molecule `O=C1CCC(c2cccc(-c3ccc(N4C(=O)Cc5ccccc54)cc3)c2Cl)C(=O)N1` (stereo not drawn) [Compound 468, 3-(2-chloro-4′-(2-oxoindolin-1-yl)-[1,1′-biphenyl]-3-yl)piperidine-2,6-dione], the greatest degradation seen (Dmax) runs as follows: (read-out: VAV1 Dmax %) 96.2%; (read-out: VAV1 Dmax %, class) more than 90%. The DC50 is 24.8 nM (read-out: VAV1 DC50) and not above 100 nM under setting [1].
